TGI data for 6 compounds are collected here from PubChem BioAssay (NCI).

Test systems include A498 renal; A549 NSCLC; CAKI-1 renal; COLO 205 colon; EKVX NSCLC; HCC-2998 colon; HL-60(TB) leukemia; K-562 leukemia; NCI-H460 lung; NCI/ADR-RES ovarian; OVCAR-4 ovarian; OVCAR-8 ovarian; PC-3 prostate; SF-268 CNS; SF-295 CNS; SF-539 CNS; SK-MEL-5 melanoma; SK-OV-3 ovarian; SNB-75 CNS; UACC-257 melanoma.
What all share (assay): NCI-60 cell line screen, 48 h

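48-hour exposure; five concentrations; linearly interpolated endpoints. TGI denotes the concentration required for complete inhibition of growth.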

Turning to `C/C(=N/c1[nH]c(=O)cc2c1C(=O)CC2)N(C)C`, the TGI in the test with A498 renal, in the test on A549 NSCLC, in the test with CAKI-1 renal, in the test with COLO 205 colon, with EKVX NSCLC and in the test on HCC-2998 colon was above 200 µM each time. The TGI in the test with HL-60(TB) leukemia, with K-562 leukemia, in the test with NCI-H460 lung, with NCI/ADR-RES ovarian, in the test on OVCAR-4 ovarian and in the test on OVCAR-8 ovarian was above 200 µM in each case. Moreover, the TGI in the test with PC-3 prostate, in the test with SF-268 CNS, in the test with SF-295 CNS, in the test on SF-539 CNS, in the test on SK-MEL-5 melanoma and with SK-OV-3 ovarian was above 200 µM in each case. The TGI in the test on SNB-75 CNS and in the test on UACC-257 melanoma was above 200 µM each time.
`COc1cc2c(cc1OC)-c1c(oc3cc(OC4OC(CO)C(O)C(O)C4O)c(OC)cc3c1=O)C(O)O2` (stereo not given): the TGI with A498 renal, in the test on A549 NSCLC, with CAKI-1 renal, in the test on COLO 205 colon, with EKVX NSCLC and in the test with HCC-2998 colon was above 100 µM in each case. In addition, the TGI in the test with HL-60(TB) leukemia, in the test with K-562 leukemia, in the test with NCI-H460 lung, in the test on NCI/ADR-RES ovarian, with OVCAR-4 ovarian and in the test with OVCAR-8 ovarian was above 100 µM throughout. For the same compound, the TGI in the test with PC-3 prostate, in the test with SF-268 CNS, in the test with SF-295 CNS, with SF-539 CNS, in the test with SK-MEL-5 melanoma and in the test with SK-OV-3 ovarian was above 100 µM each time. Further, the TGI with SNB-75 CNS and in the test on UACC-257 melanoma was above 100 µM each time.
As to `COc1cc(C2S/C(=C/c3ccccc3)C(=O)N2c2cc(Cl)c(Cl)cc2Cl)cc(OC)c1OC` (stereo not given), the TGI in the test on A498 renal is above 78 µM; in the test on A549 NSCLC it was above 100 µM; with CAKI-1 renal it was above 87.1 µM; in the test with COLO 205 colon it was above 100 µM; in the test with EKVX NSCLC, above 88.6 µM; with HCC-2998 colon, above 100 µM. The TGI in the test with HL-60(TB) leukemia was above 77.2 µM; in the test with K-562 leukemia, above 78.3 µM; in the test with NCI-H460 lung, above 100 µM; in the test on NCI/ADR-RES ovarian it was above 100 µM; in the test on OVCAR-4 ovarian, above 100 µM; in the test on OVCAR-8 ovarian, above 100 µM. Besides, the TGI in the test with PC-3 prostate, in the test on SF-268 CNS, in the test on SF-295 CNS, in the test on SF-539 CNS, in the test on SK-MEL-5 melanoma and in the test on SK-OV-3 ovarian was above 100 µM in each case. Moreover, the TGI with SNB-75 CNS was 19.1 µM; in the test with UACC-257 melanoma, above 100 µM.
As to `COc1c(O)c(O)c2c(c1O)C(=O)c1cc(C)cc(O)c1C2=O`, the TGI in the test on A498 renal is above 100 µM; with A549 NSCLC, above 100 µM; with CAKI-1 renal, above 100 µM; in the test on COLO 205 colon, 93.2 µM; in the test on EKVX NSCLC, above 100 µM; in the test with HCC-2998 colon, above 100 µM. Moreover, the TGI with HL-60(TB) leukemia was above 100 µM; in the test with K-562 leukemia, 98.5 µM; in the test on NCI-H460 lung it was above 78 µM; in the test with NCI/ADR-RES ovarian, 47.3 µM; with OVCAR-4 ovarian, above 89.1 µM; in the test with OVCAR-8 ovarian it was above 83.3 µM. The TGI with PC-3 prostate was above 100 µM; in the test with SF-268 CNS, above 100 µM; with SF-295 CNS, above 69.7 µM; in the test on SF-539 CNS, above 100 µM; in the test with SK-MEL-5 melanoma, above 100 µM; with SK-OV-3 ovarian it was above 80 µM. Further, the TGI in the test on SNB-75 CNS was above 86.5 µM; in the test with UACC-257 melanoma, above 100 µM.
For `COC(=O)C1(Cc2cccc(C)c2)Cc2c(C)cccc2C1=O` (stereo not given), the TGI with A498 renal, in the test on A549 NSCLC, in the test on CAKI-1 renal, with COLO 205 colon, with EKVX NSCLC and in the test with HCC-2998 colon was above 100 µM in each case. Further, the TGI in the test with HL-60(TB) leukemia was above 100 µM; in the test on K-562 leukemia, above 100 µM; with NCI-H460 lung it was above 100 µM; in the test with NCI/ADR-RES ovarian, 72.2 µM; in the test on OVCAR-4 ovarian, above 100 µM; with OVCAR-8 ovarian, above 100 µM. Also, the TGI in the test on PC-3 prostate, in the test with SF-268 CNS, in the test with SF-295 CNS, in the test on SF-539 CNS, in the test on SK-MEL-5 melanoma and with SK-OV-3 ovarian was above 100 µM throughout. In addition, the TGI in the test with SNB-75 CNS and in the test on UACC-257 melanoma was above 100 µM throughout.
Take `CNCCCNC1(c2cc3ccccc3s2)CCCCC1`: the TGI in the test with A498 renal turned out to be 14.1 µM; in the test with A549 NSCLC, 20.4 µM; with CAKI-1 renal, 22.1 µM; with COLO 205 colon, 3.8 µM; in the test with EKVX NSCLC it was 26.4 µM; with HCC-2998 colon it was 2.61 µM. For the same compound, the TGI was 18.9 µM in the test on HL-60(TB) leukemia; 4.11 µM with K-562 leukemia; 9.09 µM with NCI-H460 lung; 29.9 µM in the test on NCI/ADR-RES ovarian; 27 µM in the test on OVCAR-4 ovarian; 28.4 µM in the test with OVCAR-8 ovarian. The TGI in the test on PC-3 prostate turned out to be 21.5 µM; with SF-268 CNS, 25.3 µM; in the test with SF-295 CNS, 27.5 µM; in the test on SF-539 CNS it was 7.37 µM; in the test with SK-MEL-5 melanoma it was 5.68 µM; in the test on SK-OV-3 ovarian it was 29.1 µM. The TGI in the test with SNB-75 CNS was determined as 19.5 µM; with UACC-257 melanoma, 3.35 µM.
